Assay results as given in PubChem BioAssay (NCI).
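In this assay, cells in 96-well plates receive the compound at five concentrations for 48 hours. Endpoints are linearly interpolated between the surrounding concentrations. Abbreviation: GI50, concentration required for 50% inhibition of growth. The concentration for full growth arrest is given as TGI.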

Key:
Experiment in all cases: NCI-60 cell line screen, 48 h
[1] = test system: UACC-257 melanoma
[2] = test system: HCT-15 colon
[3] = test system: SF-295 CNS
[4] = test system: TK-10 renal
[5] = test system: RPMI-8226 leukemia
[6] = test system: ACHN renal
[7] = test system: NCI-H226 lung
[8] = test system: EKVX NSCLC
[9] = test system: SK-OV-3 ovarian
[10] = test system: UO-31 renal
[11] = test system: SW-620 colon
[12] = test system: OVCAR-5 ovarian
[13] = test system: MALME-3M melanoma
[14] = test system: SF-539 CNS
[15] = test system: DU-145 prostate
[16] = test system: SNB-75 CNS
[17] = test system: MOLT-4 leukemia
[18] = test system: U251 CNS
[19] = test system: IGROV1 ovarian
[20] = test system: NCI-H522 lung
[21] = test system: HT29 colon
[22] = test system: BT-549 breast
[23] = test system: HS 578T breast
[24] = test system: RXF 393 renal
[25] = test system: SK-MEL-28 melanoma
[26] = test system: CAKI-1 renal
[27] = test system: HCT-116 colon
[28] = test system: K-562 leukemia
[29] = test system: SK-MEL-5 melanoma
[30] = test system: OVCAR-8 ovarian
[31] = test system: NCI/ADR-RES ovarian
[32] = test system: NCI-H460 lung
[33] = test system: 786-0 renal
[34] = test system: T-47D breast
[35] = test system: KM12 colon
[36] = test system: SK-MEL-2 melanoma
[37] = test system: A549 NSCLC
[38] = test system: HCC-2998 colon
[39] = test system: SF-268 CNS
[40] = test system: SR leukemia
[41] = test system: A498 renal
[42] = test system: MDA-MB-231 breast
[43] = test system: HOP-62 NSCLC
[44] = test system: LOX IMVI melanoma
[45] = test system: SN12C renal
[46] = test system: NCI-H23 lung
[47] = test system: SNB-19 CNS
[48] = test system: COLO 205 colon
[49] = test system: UACC-62 melanoma
[50] = test system: MCF7 breast
[51] = test system: HOP-92 NSCLC
[52] = test system: CCRF-CEM leukemia
[53] = test system: OVCAR-4 ovarian
[54] = test system: MDA-MB-435
[55] = test system: OVCAR-3 ovarian
[56] = test system: HL-60(TB) leukemia
[57] = test system: PC-3 prostate
[58] = test system: M14 melanoma

In the case of `O=C(N/N=C/c1ccccc1O)c1ccccc1O`, the GI50 [1] was 0.434 µM, the TGI [1] was greater than 100 µM and the GI50 [2] was 0.423 µM. For the same molecule, the TGI [2] was greater than 100 µM, the GI50 [3] was 1.27 µM and the TGI [3] was greater than 100 µM. It also gave a GI50 [4] of 0.518 µM, a TGI [4] greater than 100 µM and a GI50 [5] of 1.7 µM. The TGI [5] was greater than 100 µM, the GI50 [6] was 0.68 µM and the TGI [6] was greater than 100 µM. It also gave a GI50 [7] of 2.43 µM, a TGI [7] greater than 100 µM and a GI50 [8] of 2.23 µM. It also gave a TGI [8] greater than 100 µM, a GI50 [9] of 1.75 µM and a TGI [9] greater than 100 µM. For the same molecule, the GI50 [10] was 3.12 µM, the TGI [10] was greater than 100 µM and the GI50 [11] was 0.877 µM. The TGI [11] was greater than 100 µM, the GI50 [12] was 4.96 µM and the TGI [12] was greater than 100 µM. It also gave a GI50 [13] of 12.6 µM, a TGI [13] greater than 100 µM and a GI50 [14] of 1.74 µM. It also gave a TGI [14] greater than 100 µM, a GI50 [15] of 0.847 µM and a TGI [15] greater than 100 µM. It also gave a GI50 [16] of 0.39 µM, a TGI [16] greater than 100 µM and a GI50 [17] of 0.637 µM. It also gave a TGI [17] greater than 100 µM, a GI50 [18] of 0.926 µM and a TGI [18] greater than 100 µM. The GI50 [19] was 0.794 µM, the TGI [19] was greater than 100 µM and the GI50 [20] was 0.303 µM. For the same molecule, the TGI [20] was 17.9 µM, the GI50 [21] was 11.6 µM and the TGI [21] was greater than 100 µM. The GI50 [22] was 4.44 µM, the TGI [22] was greater than 100 µM and the GI50 [23] was 8.51 µM. For the same molecule, the TGI [23] was greater than 100 µM, the GI50 [24] was 1.49 µM and the TGI [24] was greater than 100 µM. For the same molecule, the GI50 [25] was 1.92 µM, the TGI [25] was greater than 100 µM and the GI50 [26] was 0.488 µM. For the same molecule, the TGI [26] was greater than 100 µM, the GI50 [27] was 0.325 µM and the TGI [27] was greater than 100 µM. The GI50 [28] was 2.62 µM, the TGI [28] was greater than 100 µM and the GI50 [29] was 1.08 µM. For the same molecule, the TGI [29] was 12.8 µM, the GI50 [30] was 0.618 µM and the TGI [30] was greater than 100 µM. For the same molecule, the GI50 [31] was 0.451 µM, the TGI [31] was greater than 100 µM and the GI50 [32] was 0.514 µM. For the same molecule, the TGI [32] was greater than 100 µM, the GI50 [33] was 1.14 µM and the TGI [33] was greater than 100 µM. The GI50 [34] was 0.418 µM, the TGI [34] was greater than 100 µM and the GI50 [35] was 0.766 µM. For the same molecule, the TGI [35] was greater than 100 µM, the GI50 [36] was 1.03 µM and the TGI [36] was greater than 100 µM. The GI50 [37] was 2.08 µM, the TGI [37] was greater than 100 µM and the GI50 [38] was 1.91 µM. The TGI [38] was greater than 100 µM, the GI50 [39] was 0.802 µM and the TGI [39] was greater than 100 µM. It also gave a GI50 [40] of 1.74 µM, a TGI [40] greater than 100 µM and a GI50 [41] of 2.57 µM. It also gave a TGI [41] greater than 100 µM, a GI50 [42] of 0.676 µM and a TGI [42] greater than 100 µM. The GI50 [43] was 0.568 µM, the TGI [43] was greater than 100 µM and the GI50 [44] was 0.286 µM. It also gave a TGI [44] greater than 100 µM, a GI50 [45] of 1.44 µM and a TGI [45] greater than 100 µM. It also gave a GI50 [46] of 2.9 µM, a TGI [46] greater than 100 µM and a GI50 [47] of 2.69 µM. For the same molecule, the TGI [47] was greater than 100 µM, the GI50 [48] was 3.53 µM and the TGI [48] was greater than 100 µM. It also gave a GI50 [49] of 0.733 µM, a TGI [49] greater than 100 µM and a GI50 [50] of 0.337 µM. It also gave a TGI [50] greater than 100 µM, a GI50 [51] of 0.804 µM and a TGI [51] greater than 100 µM. The GI50 [52] was 0.499 µM, the TGI [52] was greater than 100 µM and the GI50 [53] was 0.297 µM. It also gave a TGI [53] greater than 100 µM, a GI50 [54] of 3.88 µM and a TGI [54] greater than 100 µM. The GI50 [55] was 0.437 µM and the TGI [55] was greater than 100 µM.

In the case of `CCOC(=O)Nn1c(C)nnc1CC#N`, the TGI [1] was greater than 100 µM, the TGI [2] was greater than 100 µM and the TGI [3] was greater than 100 µM. For the same molecule, the TGI [4] was greater than 100 µM, the TGI [5] was greater than 100 µM and the TGI [6] was greater than 100 µM. For the same molecule, the TGI [7] was greater than 100 µM, the TGI [10] was greater than 100 µM and the TGI [11] was greater than 100 µM. For the same molecule, the TGI [12] was greater than 100 µM, the TGI [56] was greater than 100 µM and the TGI [13] was greater than 100 µM. The TGI [14] was greater than 100 µM, the TGI [15] was greater than 100 µM and the TGI [16] was greater than 100 µM. The TGI [17] was greater than 100 µM, the TGI [18] was greater than 100 µM and the TGI [19] was greater than 100 µM. It also gave a TGI [20] greater than 100 µM, a TGI [21] greater than 100 µM and a TGI [22] greater than 100 µM. The TGI [23] was greater than 100 µM, the TGI [24] was greater than 100 µM and the TGI [25] was greater than 100 µM. It also gave a TGI [26] greater than 100 µM, a TGI [27] greater than 100 µM and a TGI [28] greater than 100 µM. It also gave a TGI [29] greater than 100 µM, a TGI [30] greater than 100 µM and a TGI [31] greater than 100 µM. It also gave a TGI [32] greater than 100 µM, a TGI [33] greater than 100 µM and a TGI [34] greater than 100 µM. For the same molecule, the TGI [57] was greater than 100 µM, the TGI [35] was greater than 100 µM and the TGI [36] was greater than 100 µM. It also gave a TGI [58] greater than 100 µM, a TGI [37] greater than 100 µM and a TGI [38] greater than 100 µM. The TGI [39] was greater than 100 µM, the TGI [40] was greater than 100 µM and the TGI [42] was greater than 100 µM. The TGI [43] was greater than 100 µM, the TGI [44] was greater than 100 µM and the TGI [45] was greater than 100 µM. The TGI [46] was greater than 100 µM, the TGI [47] was greater than 100 µM and the TGI [49] was greater than 100 µM. It also gave a TGI [50] greater than 100 µM, a TGI [51] greater than 100 µM and a TGI [55] greater than 100 µM.
